Experimental findings from patent US20080280933A1, “BENZIMIDAZOLYL COMPOUNDS” (priority 2006, published 2008) are described below.

Like-named read-outs stand apart in the source and are kept apart here.

This assay concerns the target T1, mGluR2 receptor (metabotropic glutamate receptor 2) (Homo sapiens, UniProt Q14416).
T1 construct: expressed in transfected cells
The assay is described as follows: mGluR2 Potentiator Screen, FLIPR, EC10-EC20 glutamate challenge. Type of assay: cell-based. Particulars: read-out: EC50. The protocol: Procedure for mGluR2 Potentiator Screen NLB Methods EC10-EC20 Challenge Cell Culture and Plating:
Cells used for this screen are HEK cells stably transfected with the mGluR2 receptor (metabotropic glutamate receptor 2) and the Gα15 G protein. Clones were identified by functional activity (FLIPR). Cells are grown in growth media containing: DMEM High Glucose with Glutamine and Na Pyruvate (GIBCO), 10% (v/v) Heat inactivate FBS (GIBCO) G418 500 ug/ml (from 50 mg/ml stock) (GIBCO) and Blasticidin 3 ug/ml (from 5 mg/ml stock made in H2O) (Invitrogen).
2 days before the assay cell are trypsinized with 0.25% trysin/EDTA (GIBCO), spun down at 1000 rpm for 5 minutes, resuspended in growth media and plated on polystyrene 384 well black wall/clear bottom poly-D-lysine coated plates at a density of approximately 18,000 cells/well in a volume of 50 μL per well. One day before the assay the growth media is removed from the plates by flicking and replaced with media containing DMEM High Glucose without Glutamine and Na Pyruvate (GIBCO) and 10% (v/v) dialyzed FBS (GIBCO). The reason for the removal of glutamine the day before the assay is to minimize the amount of glutamate that will be present during the assay, as endogenous glutarnate released from the cells can reduce the fluorescent response and interfere with the FLIPR screen.
FLIPR Methods and Data Analysis:
On the day of the assay, the FLIPR assay is performed using the following methods:
The pH is adjusted to 7.4 with 1M NaOH. Prepare a 2 mM (approx.) stock solution of Fluo-4.am (Molecular Probes) dye in DMSO −22 μl DMSO per 50 ug vial (440 μL per 1 mg vial). Make a 1 mM (approx.) flou-4, PA working solution per vial by adding 22 μl of 20% pluronic acid (PA) (Molecular Probes) in DMSO to each 50 ug vial (440 μL per 1 mg vial). Prepare a 250 mM Probenecid (Sigma) stock solution by dissolving 0.71 g into 5 ml 1N NaOH and 5 ml assay buffer (for each liter of assay wash buffer). Make 4 uM (approx.) dye incubation media by adding 2.50 ug vials per 11 ml DMEM high glucose without glutamine (220 ml per 1 mg vial). Add 110 μL probenecid stock per 11 ml (2.5 mM final [concentration]). To the dye media add 3 units/ml of glutamic-pyruvic transaminase (GPT, Sigma) and 3 mM Na Pyruvate. The assay has worked with dye concentrations from 2 uM to 8 uM dye as well. To the assay buffer from drug preparation, add 1.83 mls DMSO and 400 μL. 15.8% P104 (from New Leads biology) per liter for final concentrations of 0.18% DMSO and 0.006% P104. To the assay buffer for cell washing, add probenecid in the same manner and concentration that was used for the dye media.
Remove growth media from cell plates by flicking. Add 50 μl/well dye solution. Incubate 1 hour at 37° C. and 5% CO2. Remove dye solution and wash 3 times with assay buffer+probenecid (100 μl probenecid stock per 10 ml buffer), leaving 30 μL/well assay buffer. Wait at least 10-15 minutes. Compounds and agonist challenge additions are performed with the FLIPR. The in addition is for test compounds, which are added as 15 μL of 4× [concentration] of potentiator. The second 2nd addition is 15 μL of 4× [concentration] of agonist or challenge. This achieves 1× concentration of all compounds only after 2nd addition. The 1st and 2nd additions are performed separately using the FLIPR, which give 2 different data files. Compounds are pretreated at least 30 minutes before agonist addition.
Results are analyzed by dividing the peak fluorescent value of the FLIPR response by the […] to achieve a ratio response. The ratios are then analyzed by curve fitting programs. Since potent compounds can give an inverted U dose response curve (due to effects on endogenous glutamate by the potentiators) points are deleted at concentrations higher than the concentration that gives the maximum effect. Maximum values for dose response curves (forced fitting) are derived from standards on the plate.
Compound Preparation and Glutamate Challenge: […]

T1 sequence (Q14416 19-872, species assumed): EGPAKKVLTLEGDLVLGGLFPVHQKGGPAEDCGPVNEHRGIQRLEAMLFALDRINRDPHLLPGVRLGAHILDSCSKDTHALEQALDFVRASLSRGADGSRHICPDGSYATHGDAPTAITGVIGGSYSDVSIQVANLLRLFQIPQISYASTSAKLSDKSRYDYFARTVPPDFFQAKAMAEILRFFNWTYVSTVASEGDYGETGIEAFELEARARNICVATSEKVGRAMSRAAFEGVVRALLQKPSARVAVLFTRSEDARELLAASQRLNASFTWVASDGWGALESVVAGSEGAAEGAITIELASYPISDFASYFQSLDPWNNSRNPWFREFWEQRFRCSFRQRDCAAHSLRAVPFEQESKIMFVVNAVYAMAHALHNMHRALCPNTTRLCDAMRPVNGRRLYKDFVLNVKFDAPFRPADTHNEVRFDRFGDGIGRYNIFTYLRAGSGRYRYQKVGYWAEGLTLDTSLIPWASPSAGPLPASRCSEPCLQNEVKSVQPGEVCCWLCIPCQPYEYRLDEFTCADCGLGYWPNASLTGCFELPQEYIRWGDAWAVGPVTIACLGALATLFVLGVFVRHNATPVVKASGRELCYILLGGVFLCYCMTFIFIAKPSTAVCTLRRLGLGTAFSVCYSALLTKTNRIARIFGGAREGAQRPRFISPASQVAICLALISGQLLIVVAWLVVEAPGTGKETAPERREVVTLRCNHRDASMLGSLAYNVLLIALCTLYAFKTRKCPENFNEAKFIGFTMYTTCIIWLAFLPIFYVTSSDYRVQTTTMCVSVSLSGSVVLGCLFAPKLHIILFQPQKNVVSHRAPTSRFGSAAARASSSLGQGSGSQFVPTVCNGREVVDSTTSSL

Consider “2-(2-((4-(2-fluorophenyl)piperidin-1-yl)methyl)-1-methyl-1H-benzo[d]imidazol-5-yl)propan-2-ol [Entry 298]”, for which the EC50 was found to be 2530 nM. On the same count and under the same terms, in the case of “2-((4-(2-Fluorophenyl)piperidin-1-yl)methyl)-1-methyl-1H-benzo[d]imidazol-5-carboxamide [Entry 363]” it was 5210 nM; in that of “2-((4-(2-Fluorophenyl)piperidin-1-yl)methyl)-1-methyl-1H-benzo[d]imidazole-5-carbonitrile [Entry 272]”, 439 nM; in that of “2-((4-(2-Fluorophenyl)piperidin-1-yl)methyl)-1-methyl-6-phenyl-1H-benzo[d]imidazole [Entry 276]”, 3100 nM. “2-((4-(2-Fluorophenyl)piperidin-1-yl)methyl)-3-methyl-3H-benzo[d]imidazole-5-carbonitrile [Entry 275]”: the EC50 amounted to 2620 nM. For “2-((4-(2-fluorophenyl)piperidin-1-yl)methyl)-6-methoxy-1-methyl-1H-benzo[d]imidazole [Entry 278]”, the EC50 was determined as 1620 nM.

In the case of “2-[4-(2-Methoxy-phenyl)-piperidin-1-ylmethyl]-1-methyl-1H-benzoimidazol-4-ylamine [Entry 264]”, the EC50 is 5210 nM. On to “2-[4-(2-Methoxy-phenyl)-piperidin-1-ylmethyl]-1-methyl-1H-benzoimidazole-5-carboxylic acid [Entry 288]”, for which the EC50 was 569 nM. Consider “2-{[Cis-4-(3,4-Difluoro-phenyl)-3-methyl-piperidin-1-yl]methyl}-1-methyl-1H-benzoimidazole [Entry 462]”, for which the EC50 came to 1810 nM. In the case of “4-Fluoro-2-((4-(2-Fluorophenyl)piperidin-1-yl)methyl)-1-methyl-1H-benzo[d]imidazole [Entry 325]”, the EC50 was 97.9 nM. Take “5-(2-Methoxy-phenyl)-1-(1-methyl-1H-benzoimidazol-2-ylmethyl)-azepan-2-one [Entry 291]”: the EC50 came out at 916 nM. Turning to `C[C@@H]1CN(Cc2nc3ccccc3n2C)CC[C@@H]1c1ccc(F)c(F)c1` (racemic) [Entry 462, 2-{[Cis-4-(3,4-Difluoro-phenyl)-3-methyl-piperidin-1-yl]methyl}-1-methyl-1H-benzoimidazole], the EC50 was determined as 241 nM. On the same count and under the same terms, in the case of `COCCn1c(CN2CC[C@H](c3ccccc3OC)[C@H](C)C2)nc2ccccc21` (relative stereo) [compound 336] it was 2360 nM. For `COc1ccccc1[C@H]1CCN(Cc2nc3ccccc3n2C)C[C@H]1C` (relative stereo) [compound 337], the EC50 was determined as 323 nM.

For `COc1ccccc1[C@H]1CCN(Cc2nc3ccccc3n2C2CC2)C[C@H]1C` (relative stereo) [compound 338], the EC50 turned out to be 1450 nM.

Regarding `COc1ccccc1[C@H]1CCN(Cc2nc3ccccc3n2CCF)C[C@H]1C` (relative stereo) [compound 339], the EC50 stood at 604 nM. Take `C[C@@H]1CN(Cc2nc3ccccc3n2C)CC[C@@H]1c1ccc(C(F)(F)F)cc1` (relative stereo) [compound 404]: the EC50 came to 471 nM. Consider `C[C@@H]1CN(Cc2nc3ccccc3n2C)CC[C@@H]1c1ccccc1F` (relative stereo) [compound 405], for which the half-maximal effective concentration (EC50) is 124 nM. Same read-out and setting: in the case of `C[C@@H]1CN(Cc2nc3ccccc3n2C)CC[C@@H]1c1ccc(F)c(Cl)c1` (relative stereo) [compound 456] it was 181 nM; in that of `C[C@H]1C[C@@H](c2ccc(C(F)(F)F)cc2)CCN1Cc1nc2ccccc2n1C` (relative stereo) [compound 457], 454 nM.

For the molecule `COc1cc(C(F)(F)F)ccc1[C@H]1CCN(Cc2nc3ccccc3n2C)C[C@H]1C` (relative stereo) [compound 459], the EC50 was found to be 128 nM. With `C[C@@H]1CN(Cc2nc3ccccc3n2C)CC[C@@H]1c1ccc(Cl)cc1F` (relative stereo) [compound 461], the EC50 was found to be 30.3 nM.

Consider `C[C@@H]1CN(Cc2nc3ccccc3n2C)CC[C@@H]1c1ccc(F)cc1F` (relative stereo) [compound 463], for which the EC50 was 40.7 nM. Consider `COc1cc(F)ccc1[C@H]1CCN(Cc2nc3ccccc3n2C)C[C@H]1C` (relative stereo) [compound 464], for which the EC50 came to 125 nM. As to `C[C@@H]1CN(Cc2nc3ccccc3n2C)CC[C@@H]1c1ccc(C(F)(F)F)c(F)c1` (relative stereo) [compound 465], the EC50 amounted to 375 nM.

Regarding `C[C@@H]1CN(Cc2nc3ccccc3n2C)CC[C@@H]1c1ccc(C(F)(F)F)cc1C(F)(F)F` (relative stereo) [compound 466], the EC50 worked out at 161 nM. Regarding `C[C@@H]1CN(Cc2nc3ccccc3n2C)CC[C@@H]1c1ccc(C(F)(F)F)cc1Cl` (relative stereo) [compound 467], the EC50 is 53.1 nM. Same read-out and setting: in the case of `C[C@@H]1CN(Cc2nc3ccccc3n2C)CC[C@@H]1c1ccc(Cl)cc1Cl` (relative stereo) [compound 468] it was 86.2 nM. The same measure, in the same setting: in the case of `Cc1cc(Cl)ccc1[C@H]1CCN(Cc2nc3ccccc3n2C)C[C@H]1C` (relative stereo) [compound 469] it was over 351 nM; in that of `C[C@@H]1CN(Cc2nc3ccccc3n2C)CC[C@@H]1c1ccc(F)c(F)c1` (single isomer, unassigned) [Entry 472, 2-{[Cis-4-(3,4-Difluoro-phenyl)-3-methyl-piperidin-1-yl]methyl}-1-methyl-1H-benzoimidazole], 152 nM; in that of `C[C@@H]1CN(Cc2nc3ccccc3n2C)CC[C@@H]1c1ccc(F)c(F)c1` (single isomer, unassigned) [Entry 473, 2-{[Cis-4-(3,4-Difluoro-phenyl)-3-methyl-piperidin-1-yl]methyl}-1-methyl-1H-benzoimidazole], 1030 nM. Same read-out and setting: in the case of `CN1CC2(CCN(Cc3nc4ccccc4n3C)CC2)c2cc(Br)ccc21` [Entry 104, 5-Bromo-1-methyl-1'-[(1-methyl-1H-benzimidazole-2-yl)methyl]-1,2-dihydrospiro[indole-3,4'-piperidine]] it was 1410 nM. For `Cn1c(CN2CCC(c3ccccc3F)CC2)nc2cc(C#N)ccc21` [Entry 272, 2-((4-(2-Fluorophenyl)piperidin-1-yl)methyl)-1-methyl-1H-benzo[d]imidazole-5-carbonitrile], the EC50 was determined as 73 nM.

`Cn1c(CN2CCC(c3ccccc3F)CC2)nc2ccc(C#N)cc21` [Entry 275, 2-((4-(2-Fluorophenyl)piperidin-1-yl)methyl)-3-methyl-3H-benzo[d]imidazole-5-carbonitrile]: the concentration for a half-maximal effect (EC50) was determined as 211 nM. As for `Cn1c(CN2CCC(c3ccccc3F)CC2)nc2ccc(-c3ccccc3)cc21` [Entry 276, 2-((4-(2-Fluorophenyl)piperidin-1-yl)methyl)-1-methyl-6-phenyl-1H-benzo[d]imidazole], the EC50 is 204 nM. For the molecule `COc1ccc2nc(CN3CCC(c4ccccc4F)CC3)n(C)c2c1` [Entry 278, 2-((4-(2-fluorophenyl)piperidin-1-yl)methyl)-6-methoxy-1-methyl-1H-benzo[d]imidazole], the EC50 was found to be 46.6 nM. Take `Cc1ccc2nc(CN3CCC(c4ccccc4F)CC3)n(C)c2c1` [Entry 279]: the EC50 was 327 nM. Moreover, the EC50 (listed as 9) is 2170 nM.

For `COc1ccccc1C1CCN(Cc2nc3cc(C(=O)O)ccc3n2C)CC1` [Entry 288, 2-[4-(2-Methoxy-phenyl)-piperidin-1-ylmethyl]-1-methyl-1H-benzoimidazole-5-carboxylic acid], the concentration giving a half-maximal response (EC50) was 1680 nM.
